According to patent publication US11116778B2, “Prodrugs of ALOX-15 inhibitors and methods of using the same” (EMPIRICO INC., priority 2019, dated 2021):
In brackets after ≈: the same amount, converted by molar mass. Read-outs that look alike come from different tables or passages of the source.

Legend:
[1] = Solubility assessment in water; assay type: physicochemical; settings: water; 0.4 μg/ml at molecular weight 308; read-out: solubility, concentration
Description: Water was added slowly to 4.7 mg of compound 5 until 4.7 ml of water was added at which point the phosphate fully dissolved. The pH of the solution was estimated using litmus paper and estimated to be <3. Without a counterion, the molecular weight of the phosphate is 418 m. Therefore, at 1 mg/ml, the concentration is 2.4 mM.
For comparison, compound 3 is soluble to 0.4 μg/ml (Han et al FASEB J. 2017 31(2):491-504), which at a molecular weight of 308 is 1.3 μM.
Compound 5 was suspended in water (at weight to give a final concentration of 10 mM) and then 2 eq NaHCO3 was added.

[2] = Levels of compound 3 and compound 5 in rabbit nasal lavage and serum after nasal administration of compound 5; assay type: in vivo
Description: Six (6) female NZW rabbits were employed in this study. Rabbits were obtained from Covance (Denver Pa.). Rabbits were between approximately 10 and 12 months of age at the time of study start. At time point 0, all animals received 50 μL of solution containing rabbit IL4 (RND Systems/Biotechne) and human IL13 (PreproTech) at a concentration of 0.25 mg/mL each in 0.5×PBS containing 12.5 mg/mL BSA per nostril. This was administered intranasally via a venous catheter attached to a micropipette. The animal was positioned in a supine manner and the venous catheter inserted into the nostril. The volume was introduced into the nasal cavity and the same procedure was repeated with the other nostril.
At the 2, 4, and 6 hour time points, animals in Group 1 (n=3) received 0.2 mL of vehicle (0.9% saline) per nostril and the animals in Group 2 (n=3) received 0.2 mL of compound 5 (10 mM) in vehicle per nostril. The dosing of vehicle and compound 5 proceed as follows: The animal was positioned in a supine manner in a restraint bag and a mucosal atomization device (MAD) attached to the pre-filled tuberculin syringe was inserted into the nostril and introduced into the nasal cavity. The same procedure was repeated with the other nostril.
At the 8 hour time point, all the nostrils of all animals were lavaged with 1 mL of 0.9% saline per nostril and the resulting fluid collected. Intranasal lavages were performed as follows: The animals were held sternally in a restraint bag with the head over the edge of the table and the rear of the animal elevated higher than the head. A flexible venous catheter was inserted in the nostril until resistance was felt. The 1 mL of saline was introduced through the catheter into the nasal cavity. The nasal lavage returned from the nostril was collected via a funnel into a conical tube and the approximate volume recorded. This procedure was repeated for the other nostril. The lavage was stored at approximately −70° C. until analysis. Following (<10 minutes) the 8 hour time point lavage, blood was collected from all animals, processed to serum, and frozen at approximately −70° C. until analysis.
Nasal lavage and serum samples were analyzed for the levels of compound 3 and compound 5. Frozen tissue samples were weighed (20-120 mg) and placed into 2 mL CK14 homogenizing tubes (Bertin) and 500 μL of methanol containing 1 mM butylated hydroxy toluene (BHT) and 1 mM tris(2-carboxyethyl)phosphine (TCEP) was added. The tubes were placed in a Precellys 24 tissue homogenizer (Bertin) and run at 6000 rpm six times for 20 seconds with a 10 second pause between cycles. The tubes containing the homogenized tissue were then placed in a microfuge and centrifuged for 5′ at 14,000 rpm to pellet any insoluble material. Compound 3 was quantified using LC-MS/MS (QTrap5500, Applied Biosystems). Q1/Q3 Masses: 306.00/135.00 using a deschloro derivative of compound 3 (lacking chlorine at 4 position of pyrazole ring) as an internal standard. The Q1/Q3 Masses are 272.00/101.00 Da for the internal standard. Compound 3 was extracted using liquid/liquid extraction with methanol as a diluent. […] Compound 5 was quantified using LC-MS/MS (QTrap5500, Applied Biosystems). […] Compound 5 was detected in the lavage samples from Group 2 animals (rabbit 1, rabbit 2, rabbit 3) and ranged in average concentration from 0.016 uM-0.35 uM. […]

[3] = Han et al FASEB J. 2017; cited from earlier work

**Q.** What does the source list for O=C(Nc1ccc(F)cc1Cl)c1n[nH]c(Cl)c1Cl [compound 3, 4,5-dichloro-N-(2-chloro-4-fluorophenyl)-1H-pyrazole-3-carboxamide]?
**A.** solubility [1]: 1.3 µM (≈ 0.401 µg/mL); concentration at 8 h ([2]; female, NZW, rabbit, nasal lavage, other: intranasal (mucosal atomization device), rabbits dosed with compound 5, 0.2 mL of 10 mM per nostril at 2, 4, 6 hours, lavage at 8 hours, range over 3 rabbits, read-out: average concentration of compound 3 in nasal lavage (FIG. 8)): 0.89 to 3.1 µM; level in serum samples ([2]; rabbits, intranasal compound 5 10 mM, blood after the 8 hour lavage): no quantifiable; solubility [3]: 0.4 µg/mL (≈ 1.3 µM)
